Assay results from patent EP0546474A1, “Pseurotin F1/F2, new metabolites from Aspergillus fumigatus, process for their preparation and their use as apomorphine antagonists” (HOECHST AKTIENGESELLSCHAFT, priority 1991, dated 1993).

Key:
[1] = Solubility in organic solvents; format: physicochemical; conditions: in CH2C12, CHCl3, Essigsäureethylester, Aceton, Ethanol and Isopropanol; isolated as amorphous solid
Excerpt: Die Pseurotine F1 /F2 werden als amorpher Feststoff isoliert und sind z.B. löslich in CH2C12, CHCl3, Essigsäureethylester, Aceton, Ethanol und Isopropanol. • FAB-MS: m/e = 418 (37 %, [M + H]^+), 400 (12 %) 382 (14 %) • Pseurotin F1: Rf = 0,29; Ethylacetat-H/Heptan (2 : 1) • Pseurotin F2: Rf = 0,20; Ethylacetat-H/Heptan (2:1) (dünnschichtchromatographisch aufgetrennt) Molmasse: 417, 12 (C21 H23NO8)

[2] = system: Mäusen; assay: Apomorphine antagonism: inhibition of apomorphine-induced climbing in mice; format: in vivo; conditions: compound given 30 min (i.p.) or 60 min (p.o.) before apomorphine
Description: Die Wirkung der Verbindungen der Formeln la und Ib als Apomorphin Antagonisten wird an Mäusen getestet. Hierzu wird zunächst Apomorphin als 1 %ige Lösung (Verdünnungsmittel:Tylose, z.B. Methocel, Hoechst AG, Frankfurt, Deutschland) einmalig […] injiziert. Die Dosis ist so gewählt, daß sie bei 95 % der Mäuse für ca. 30 Minuten eine anhaltende Klettertätigkeit auslöst (1,5 mg Apomorphin/kg Maus; subcutane Injektion). Tiere, die noch vor der Apomorphingabe eine konstante Klettertätigkeit aufweisen, werden nicht im Test berücksichtigt. Pseurotin F1 oder F2 wird 30 bzw. 60 Min. vor Apomorphin appliziert (i.p. bzw. p.o.). Es wird viermal abgelesen: unmittelbar vor sowie 10, 20 und 30 Min nach Apomorphin-Injektion. Dabei wird das Kletterverhalten pro Maus beurteilt:
Testkriterium ist, ob eine Hemmung des durch Apomorphin verursachten Kletterns eintritt.

[3] = Stability in the solid state and in solution; format: physicochemical; conditions: solid state and solutions in the pH range between 3 and 8, in particular 5 and 7
Excerpt: Die Verbindungen der Formeln la und Ib sind im festen Zustand und in Lösungen im pH-Bereich zwischen 3 und 8, insbesondere 5 und 7, stabil und lassen sich damit in übliche galenische Zubereitungen einarbeiten.

[4] = 10 min after apomorphine injection (1,5 mg/kg, s.c.), observed in the majority of treated mice
[5] = 20 min after apomorphine injection (1,5 mg/kg, s.c.), observed in nearly all animals

| SMILES | Löslichkeit [1] | Kletterverhalten pro Maus (Hemmung des durch Apomorphin verursachten Kletterns) [2, 4] | Kletterverhalten pro Maus (Hemmung des durch Apomorphin verursachten Kletterns) [2, 5] | Stabilität [3] |
| --- | --- | --- | --- | --- |
| CC/C=C\[C@H](O)[C@H](O)C1=C(C)C(=O)[C@]2(O1)C(=O)N[C@](O)(C(=O)c1ccccc1)[C@@H]2O [Pseurotin F1] | löslich | nur noch 1 oder 2 Pfoten an der Wand | deutliche Symptome in Form der Kletterhemmung (4 Pfoten am Boden) | stabil |
| CC/C=C\[C@H](O)[C@H](O)C1=C(C)C(=O)[C@]2(O1)C(=O)N[C@@](O)(C(=O)c1ccccc1)[C@@H]2O [Pseurotin F2] | löslich | nur noch 1 oder 2 Pfoten an der Wand | deutliche Symptome in Form der Kletterhemmung (4 Pfoten am Boden) | stabil |
